Assay results: the supplement of paper PMC10307832

Experiments:
Experiment in all cases: relative viability (nuclei count vs DMSO), 5 days (fraction); higher = more cells survive
[1] = compound: C1CCC(CC1)N(CCNCCC2=C3C(=C(C=C2)O)NC(=O)CO3)C(=O)CCNCCC4=CC(=C(C=C4)Cl)Cl [AZ505] + CS(=O)(=O)N1CCN(Cc2cc3nc(-c4cccc5[nH]ncc45)nc(N4CCOCC4)c3s2)CC1 [Pictilisib] (partner 1 µM)
In short: (§1)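 Relative viability divides the nuclei count in treated wells by that in vehicle wells. Lung cancer cell lines were seeded in 1536-well plates, dosed by pin tool the next day, and fixed and stained after 5 days in one step with final 0.05% Triton X-100, 1% formaldehyde and 1 ug/ml Hoechst. Dosing was a single drug or a fixed anchor-drug dose plus five library-drug doses (not always all listed) in √10 steps, and values are medians of duplicate plates imaged at 4×.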

[2] = compound: C1CCC(CC1)N(CCNCCC2=C3C(=C(C=C2)O)NC(=O)CO3)C(=O)CCNCCC4=CC(=C(C=C4)Cl)Cl [AZ505] + COc1cccc2cc(-c3nc([C@H]4CC[C@H](C(=O)O)CC4)n4ncnc(N)c34)[nH]c12 [OSI-027] (partner 0.5 µM)
In short: as §1

[3] = compound: C1CCC(CC1)N(CCNCCC2=C3C(=C(C=C2)O)NC(=O)CO3)C(=O)CCNCCC4=CC(=C(C=C4)Cl)Cl [AZ505] + Cc1cc(Nc2cc(N3CCN(C)CC3)nc(Sc3ccc(NC(=O)C4CC4)cc3)n2)n[nH]1 [Tozasertib] (partner 0.1 µM)
In short: as §1

[4] = compound: C1CCC(CC1)N(CCNCCC2=C3C(=C(C=C2)O)NC(=O)CO3)C(=O)CCNCCC4=CC(=C(C=C4)Cl)Cl [AZ505] + C[C@]1(O)C[C@@H](c2nc(-c3ccc4ccc(-c5ccccc5)nc4c3)c3c(N)nccn32)C1 [Linsitinib] (partner 1 µM)
In short: as §1

Cell Line | relative viability ([1]; first compound 0.08 µM) | relative viability ([1]; first compound 0.253 µM) | relative viability ([1]; first compound 0.8 µM) | relative viability ([1]; first compound 2.53 µM) | relative viability ([1]; first compound 8 µM) | relative viability ([2]; first compound 0.08 µM) | relative viability ([2]; first compound 0.253 µM) | relative viability ([2]; first compound 0.8 µM) | relative viability ([2]; first compound 2.53 µM) | relative viability ([2]; first compound 8 µM) | relative viability ([3]; first compound 0.08 µM) | relative viability ([3]; first compound 0.253 µM) | relative viability ([3]; first compound 0.8 µM) | relative viability ([3]; first compound 2.53 µM) | relative viability ([3]; first compound 8 µM) | relative viability ([4]; first compound 0.08 µM) | relative viability ([4]; first compound 0.253 µM) | relative viability ([4]; first compound 0.8 µM) | relative viability ([4]; first compound 2.53 µM) | relative viability ([4]; first compound 8 µM)
201T | 0.651 | 0.678 | 0.613 | 0.633 | 0.674 | 0.688 | 0.721 | 0.813 | 0.91 | 0.764 | 0.896 | 1.08 | 0.905 | 0.943 | 0.875 | 1.03 | 0.98 | 0.993 | 1.01 | 0.968
A549 | 0.461 | 0.569 | 0.519 | 0.585 | 0.59 | – | – | – | – | – | – | – | – | – | – | 0.452 | 0.503 | 0.622 | 0.565 | 0.562
A-427 | 0.693 | 0.514 | 0.566 | 0.726 | 0.741 | 0.416 | 0.278 | 0.376 | 0.504 | 0.492 | 0.211 | 0.177 | 0.194 | 0.187 | 0.216 | 1.13 | 1.08 | 1.09 | 1.11 | 1.09
ABC-1 | 0.711 | 0.618 | 0.759 | 0.662 | 0.57 | 0.469 | 0.325 | 0.521 | 0.493 | 0.558 | 0.116 | 0.185 | 0.168 | 0.168 | 0.167 | 0.636 | 0.889 | 0.935 | 0.901 | 0.697
BEN | 0.498 | 0.611 | 0.565 | 0.599 | 0.622 | 0.287 | 0.274 | 0.259 | 0.304 | 0.309 | 0.443 | 0.545 | 0.458 | 0.504 | 0.426 | 0.735 | 1.1 | 0.904 | 0.891 | 1.12
CAL-12T | 0.445 | 0.355 | 0.559 | 0.432 | 0.512 | 0.545 | 0.548 | 0.667 | 0.645 | 0.834 | 0.298 | 0.426 | 0.308 | 0.303 | 0.302 | 0.72 | 0.901 | 0.684 | 0.748 | 0.9
COR-L23 | 0.546 | 0.741 | 0.486 | 0.686 | 0.535 | 0.494 | 0.65 | 0.588 | 0.486 | 0.656 | 0.181 | 0.177 | 0.22 | 0.179 | 0.146 | 0.684 | 0.772 | 0.749 | 0.855 | 0.692
COR-L 105 | 0.368 | 0.391 | 0.375 | 0.355 | 0.497 | 0.626 | 0.572 | 0.615 | 0.62 | 0.752 | 0.354 | 0.34 | 0.341 | 0.335 | 0.403 | 0.703 | 1.05 | 0.761 | 0.779 | 1.01
Calu-6 | 0.835 | 0.989 | 0.884 | 0.905 | 0.867 | – | – | – | – | – | – | – | – | – | – | 0.872 | 0.929 | 0.851 | 0.92 | 0.956
ChaGo-K-1 | 0.824 | 0.58 | 0.691 | 0.819 | 0.901 | 0.53 | 0.448 | 0.593 | 0.699 | 0.537 | 0.2 | 0.232 | 0.244 | 0.216 | 0.238 | – | – | – | – | –
EBC-1 | 0.374 | 0.375 | 0.345 | 0.354 | 0.328 | – | – | – | – | – | – | – | – | – | – | 0.87 | 0.833 | 1.01 | 0.841 | 0.896
EKVX | 0.388 | 0.466 | 0.425 | 0.446 | 0.501 | 0.674 | 0.714 | 0.684 | 0.645 | 0.717 | 0.372 | 0.354 | 0.435 | 0.38 | 0.378 | 0.963 | 1.15 | 0.951 | 1.04 | 1.06
EMC-BAC-2 | 0.485 | 0.523 | 0.505 | 0.471 | 0.507 | 0.358 | 0.38 | 0.392 | 0.385 | 0.372 | 0.268 | 0.323 | 0.299 | 0.274 | 0.275 | 0.767 | 0.834 | 0.813 | 0.822 | 0.879
EPLC-272H | 0.255 | 0.306 | 0.285 | 0.256 | 0.289 | – | 0.251 | 0.22 | 0.263 | 0.283 | – | 0.392 | 0.282 | 0.316 | 0.25 | 0.922 | 1.14 | 1.04 | 1.34 | 1.33
H3255 | 0.395 | 0.39 | 0.48 | 0.424 | 0.598 | 0.548 | 0.675 | 0.617 | 0.624 | 0.559 | 0.639 | 1.17 | 0.564 | 0.503 | 0.577 | 0.836 | 1 | 0.918 | 0.983 | 0.929
HARA | 0.267 | 0.399 | 0.287 | 0.228 | 0.264 | 0.269 | 0.234 | 0.352 | 0.345 | 0.365 | 0.165 | 0.102 | 0.0957 | 0.106 | 0.0964 | 0.897 | 0.894 | 0.695 | 0.737 | 0.773
HCC-15 | 0.658 | 0.657 | 0.712 | 0.462 | 0.71 | 0.612 | 0.624 | 0.596 | 0.594 | 0.726 | 0.363 | 0.299 | 0.36 | 0.344 | 0.322 | 0.877 | 0.909 | 0.842 | 0.837 | 0.919
